Experimental data published in PMC12314110, “Evaluation of Potential Effects of CYP3A Inhibition and CYP3A Induction on the Pharmacokinetics of Fruquintinib in Healthy Subjects” (Clinical Pharmacology in Drug Development, 2025).

Assays:
[1] = Safety assessments (adverse events) in healthy subjects; format: in vivo, human; settings: Part A, fruquintinib 5 mg alone or with itraconazole, healthy subjects
Experimental: Safety was assessed by evaluation of adverse events (AEs), serious AEs, AEs of special interest, physical examinations, vital signs, single 12‐lead electrocardiograms and cardiac monitoring, and clinical laboratory data. All AEs were coded using the Medical Dictionary for Regulatory Activities Version 23.0, and their severity was graded using the National Cancer Institute Common Terminology Criteria for Adverse Events Version 5.0.

[2] = design: method as in PMID 28730290; settings: mass balance study, major circulating metabolite; cited from earlier work

| Structure (SMILES) | adverse events [1] | share of total radioactivity exposure in plasma [2] |
| --- | --- | --- |
| CNC(=O)c1c(C)oc2cc(Oc3ncnc4cc(OC)c(OC)cc34)ccc12 [Fruquintinib] | no AEs reported |  |
| COc1cc2ncnc(Oc3ccc4c(C(N)=O)c(C)oc4c3)c2cc1OC [M11] |  | approximately 17% |
